Patent US20110065706A1, “Therapeutic Agents 812” (AstraZeneca AB, priority 2009, published 2011)

Target: T1, human GPR119 (Homo sapiens, UniProt Q8TDV5)
T1 construct: expressed in transfected cells; host or cells: HEK 293s
T1 sequence (Q8TDV5 1-335): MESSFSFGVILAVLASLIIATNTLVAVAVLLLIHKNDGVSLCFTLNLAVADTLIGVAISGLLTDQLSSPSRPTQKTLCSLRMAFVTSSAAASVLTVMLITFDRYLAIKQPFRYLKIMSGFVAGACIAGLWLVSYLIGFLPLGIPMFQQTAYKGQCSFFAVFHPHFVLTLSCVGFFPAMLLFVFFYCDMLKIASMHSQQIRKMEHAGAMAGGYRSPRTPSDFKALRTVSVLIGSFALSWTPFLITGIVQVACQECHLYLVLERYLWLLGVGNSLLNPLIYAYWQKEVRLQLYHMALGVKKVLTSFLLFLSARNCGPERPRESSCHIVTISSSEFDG
Experiment: Cyclic AMP (HTRF cAMP) assay for human GPR119, Method A
Type: cell-based
Conditions: Method A, HEK 293s cells over-expressing human GPR119; for activation at 30 µM: HEK293S, 0.75 h, percent effect at top concentration 30 μM relative to maximum (50 μM Oleoylethanolamide) and minimum (1% DMSO) controls; for EC50: midpoint of dose response curve, selected examples

| Structure (SMILES) | activation at 30 µM [%] | EC50 [nM] |
| --- | --- | --- |
| CC(C)(C)OC(=O)N1CCN(c2ncc(OCc3ccc(C(=O)N4CCNCC4)cc3)cn2)CC1 [Example 50, tert-butyl 4-(5-(4-(piperazine-1-carbonyl)benz-yloxy)pyrimi-din-2-yl)piperazine-1-carboxylate] | 23 |  |
| CN1CCN(C(=O)c2ccc(COc3cnc(N4CCN(C(=O)OC(C)(C)C)CC4)nc3)cc2)CC1 [Example 51, tert-butyl 4-(5-(4-(4-methylpiper-azine-1-carbonyl)benz-yloxy)pyrimi-din-2-yl)piperazine-1-carboxylate] | 42 |  |
| CN1CCC(CNC(=O)c2ccc(COc3cnc(N4CCN(C(=O)OC(C)(C)C)CC4)nc3)cc2)CC1 [Example 52, tert-butyl 4-(5-(4-((1-methylpiper-idin-4-yl)methylcarba-moyl)benzyl-oxy)pyrimidin-2-yl)piperazine-1-carboxylate] | 20 |  |
| CC(C)(C)OC(=O)N1CCN(c2ncc(OCc3ccc(C(=O)N4CCOCC4)cc3)cn2)CC1 [Example 53] | 44 |  |
| Cc1cc(COc2cnc(N3CCN(C(=O)OC(C)(C)C)CC3)nc2)ccc1C(=O)NC(C)C [Example 54, Tert-butyl 4-(5-(4-(isopropylcarbamoyl)-3-methylbenzyloxy)pyrimidin-2-yl)piperazine-1-carboxylate] | 51 |  |
| Cc1cc(COc2cnc(N3CCN(C(=O)OC(C)(C)C)CC3)nc2)ccc1C(=O)NC(C)(C)C [Example 55, tert-butyl 4-(5-(4-(tert-butylcarbamoyl)-3-methylbenzyl-oxy)pyrimidin-2-yl)piperazine-1-carboxylate] | 65 |  |
| CC(C)OC(=O)N1CCN(c2ncc(OCc3ccc(S(C)(=O)=O)cc3)cn2)CC1 [Example 56, Isopropyl 4-(5-(4-(methylsulfonyl)benzyloxy)pyrimidin-2-yl)piperazine-1-carboxylate] | 63 |  |
| CC(C)OC(=O)N1CCN(c2ncc(OCc3ccc(S(C)(=O)=O)cc3)cn2)[C@H](C)C1 [Example 57, (R)-isopropyl 3-methyl-4-(5-(4-(methylsulfonyl)benzyloxy)pyrimidin-2-yl)piperazine-1-carboxylate] | 69 |  |
| CC(C)OC(=O)N1CCN(c2ncc(OCc3ccncc3C#N)cn2)CC1 [Example 58, isopropyl 4-(5-((3-cyanopyridin-4-yl)methoxy)pyrimidin-2-yl)piperazine-1-carboxylate] | 154 |  |
| CC1(OC(=O)N2CCN(c3ncc(OCc4ccc(S(C)(=O)=O)cc4)cn3)CC2)CC1 [Example 60, 1-Methylcyclopropyl 4-(5-(4-(methylsulfonyl)benzyloxy)pyrimidin-2-yl)piperazine-1-carboxylate] | 90 |  |
| C[C@@H]1CN(C(=O)OC2(C)CC2)CCN1c1ncc(OCc2ccc(S(C)(=O)=O)cc2)cn1 [Example 61, (R)-1-methylcyclo-propyl 3-methyl-4-(5-(4-(methylsulfonyl)benzyloxy)pyrimidin-2-yl)piperazine-1-carboxylate] | 91 |  |
| CC1(OC(=O)N2CCN(c3ncc(OCc4ccncc4C#N)cn3)CC2)CC1 [Example 62, 1-methylcyclo-propyl 4-(5-((3-cyanopyridin-4-yl)methoxy)pyrimidin-2-yl)piperazine-1-carboxylate] | 208 | 116 |
| CC(C)(C#N)OC(=O)N1CCN(c2ncc(OCc3ccc(S(C)(=O)=O)cc3)cn2)CC1 [Example 70, 2-Cyanopropan-2-yl 4-(5-(4-(methylsulfonyl)benzyloxy)pyrimidin-2-yl)piperazine-1-carboxylate] | 28 |  |
| CC(C)(C#N)OC(=O)N1CCN(c2ncc(OCc3ccncc3C#N)cn2)CC1 [Example 72, 2-cyanopropan-2-yl 4-(5-((3-cyanopyridin-4-yl)methoxy)pyrimidin-2-yl)piperazine-1-carboxylate] | 173 |  |

Results, then the compound that gave them:

| activation at 30 µM [%] | EC50 [nM] | Structure (SMILES) |
| --- | --- | --- |
| 52 |  | CS(=O)(=O)c1ccc(COc2cnc(N3CCN(C(=O)OC4CCC4)CC3)nc2)cc1 [Example 63, Cyclobutyl 4-(5-(4-(methylsulfonyl)benzyloxy)pyrimidin-2-yl)piperazine-1-carboxylate] |
| 57 |  | C[C@@H]1CN(C(=O)OC2CCC2)CCN1c1ncc(OCc2ccc(S(C)(=O)=O)cc2)cn1 [Example 64, (R)-cyclobutyl 3-methyl-4-(5-(4-(methylsulf-onyl)benzyl-oxy)pyrimi-din-2-yl)piperazine-1-carboxylate] |
| 164 |  | N#Cc1cnccc1COc1cnc(N2CCN(C(=O)OC3CCC3)CC2)nc1 [Example 65, cyclobutyl 4-(5-((3-cyanopyri-din-4-yl)methoxy)pyrimidin-2-yl)piperazine-1-carboxylate] |
| 56 |  | CC(OC(=O)N1CCN(c2ncc(OCc3ccc(S(C)(=O)=O)cc3)cn2)CC1)C(F)(F)F (stereo not shown) [Example 66, 1,1,1-Trifluoropropan-2-yl 4-(5-(4-(methylsulfonyl)benzyloxy)pyrimidin-2-yl)piperazine-1-carboxylate] |
| 60 | 39 | CC(OC(=O)N1CCN(c2ncc(OCc3ccc(S(C)(=O)=O)cc3)cn2)[C@H](C)C1)C(F)(F)F (stereo partly drawn) [Example 67, (3R)-1,1,1-trifluoropropan-2-yl 3-methyl-4-(5-(4-(methylsulfonyl)benzyloxy)pyrim-idin-2-yl)piperazine-1-carboxylate] |
| 169 |  | CC(OC(=O)N1CCN(c2ncc(OCc3ccncc3C#N)cn2)CC1)C(F)(F)F (stereo not shown) [Example 68, 1,1,1-trifluoropropan-2-yl 4-(5-((3-cyanopyridin-4-yl)methoxy)pyrim-idin-2-yl)piperazine-1-carboxylate] |
| 73 |  | C[C@@H]1CN(C(=O)OC(C)(C)C#N)CCN1c1ncc(OCc2ccc(S(C)(=O)=O)cc2)cn1 [Example 71, (R)-2-cyanopropan-2-yl 3-methyl-4-(5-(4-(methylsulfonyl)benzyloxy)pyrimidin-2-yl)piperazine-1-carboxylate] |
| 31 |  | CS(=O)(=O)c1ccc(COc2cnc(N3CCN(C(=O)OC4COC4)CC3)nc2)cc1 [Example 75, Oxetan-3-yl 4-(5-(4-(methylsulfonyl)benzyloxy)pyrimidin-2-yl)piperazine-1-carboxylate] |
| 30 |  | C[C@@H]1CN(C(=O)OC2COC2)CCN1c1ncc(OCc2ccc(S(C)(=O)=O)cc2)cn1 [Example 76, (R)-oxetan-3-yl 3-methyl-4-(5-(4-(methylsulfonyl)benzyloxy)pyrimidin-2-yl)piperazine-1-carboxylate] |
| 92 |  | N#Cc1cnccc1COc1cnc(N2CCN(C(=O)OC3COC3)CC2)nc1 [Example 77, oxetan-3-yl 4-(5-((3-cyanopyridin-4-yl)methoxy)pyrimidin-2-yl)piperazine-1-carboxylate] |
| 8 |  | C[C@@H]1CN(C(=O)OC2CCOC2)CCN1c1ncc(OCc2ccc(S(C)(=O)=O)cc2)cn1 (stereo partly drawn) [Example 78, (3R)-Tetrahydrofuran-3-yl 3-methyl-4-(5-(4-(methylsulfonyl)benzyloxy)pyrimidin-2-yl)piperazine-1-carboxylate] |
| 37 |  | CC1(OC(=O)N2CCN(c3ncc(OCc4ccc(S(C)(=O)=O)cc4)cn3)CC2)COC1 [Example 79, 3-Methyloxetan-3-yl 4-(5-(4-(methylsulfonyl)benzyloxy)pyrimidin-2-yl)piperazine-1-carboxylate] |
